According to ChEMBL document CHEMBL1201862, “PubChem BioAssay data set” (2004):
Calls of active or inactive are those of the source.

Experiments:
[1] = target: Luciferin 4-monooxygenase (Photinus pyralis, UniProt P08659); assay: firefly luciferase enzyme inhibitors, dose response, biochemical, luminescence (AID 1891)
[2] = target: Cyclin-dependent kinase 5/CDK5 activator 1 (Homo sapiens, UniProt Q00535); assay: CDK5/p35 kinase inhibitors, dose response, biochemical, cherry-picked samples, set 2 (AID 504545)
Sequence of Cyclin-dependent kinase 5/CDK5 activator 1 (Q00535 whole entry): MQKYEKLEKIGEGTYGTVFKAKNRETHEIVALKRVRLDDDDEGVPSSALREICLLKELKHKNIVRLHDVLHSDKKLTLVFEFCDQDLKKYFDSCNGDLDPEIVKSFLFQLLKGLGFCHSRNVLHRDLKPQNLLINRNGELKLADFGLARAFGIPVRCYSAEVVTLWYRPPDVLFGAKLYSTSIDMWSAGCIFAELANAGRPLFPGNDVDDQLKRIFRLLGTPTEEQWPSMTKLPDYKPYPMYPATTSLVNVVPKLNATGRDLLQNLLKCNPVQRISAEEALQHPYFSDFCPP
Sequence of Cyclin-dependent kinase 5/CDK5 activator 1 (Q15078 whole entry, further chain): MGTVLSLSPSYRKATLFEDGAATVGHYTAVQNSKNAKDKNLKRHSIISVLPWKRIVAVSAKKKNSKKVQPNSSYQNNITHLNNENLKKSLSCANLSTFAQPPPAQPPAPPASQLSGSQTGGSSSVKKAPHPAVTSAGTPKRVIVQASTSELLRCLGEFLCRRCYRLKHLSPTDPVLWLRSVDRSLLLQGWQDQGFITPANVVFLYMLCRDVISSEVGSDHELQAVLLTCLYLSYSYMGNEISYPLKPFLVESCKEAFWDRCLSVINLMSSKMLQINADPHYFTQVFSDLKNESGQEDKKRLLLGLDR

[3] = target: Paired box protein Pax-8 (Homo sapiens, UniProt Q06710); assay: inhibitors of PAX8-driven TPO luciferase reporter, dose response, RMG-I cells, cherry-pick (AID 687027); assay type: functional, cell-based;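 further: luciferase reporter driven by Pax8 target thyroperoxidase promoter measured by SteadyGlo luminescence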
Sequence of Paired box protein Pax-8 (Q06710 whole entry): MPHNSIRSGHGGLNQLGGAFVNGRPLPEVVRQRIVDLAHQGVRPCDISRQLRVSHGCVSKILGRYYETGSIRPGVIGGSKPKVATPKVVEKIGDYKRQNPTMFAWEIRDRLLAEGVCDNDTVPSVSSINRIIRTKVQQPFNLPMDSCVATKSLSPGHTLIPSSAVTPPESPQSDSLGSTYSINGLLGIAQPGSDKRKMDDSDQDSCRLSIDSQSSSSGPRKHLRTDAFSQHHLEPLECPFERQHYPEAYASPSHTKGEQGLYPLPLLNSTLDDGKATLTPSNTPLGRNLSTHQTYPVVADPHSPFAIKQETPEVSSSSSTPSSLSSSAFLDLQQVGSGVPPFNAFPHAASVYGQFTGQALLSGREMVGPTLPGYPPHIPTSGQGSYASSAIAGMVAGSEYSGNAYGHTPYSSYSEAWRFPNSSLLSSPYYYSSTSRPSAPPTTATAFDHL

[4] = target: T1, Neuropeptide Y receptor type 2 (Homo sapiens, UniProt P49146); assay type: functional, cell-based;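 further: HEK293 cells expressing the receptor and a CNG channel; stimulus was NPY near EC95 followed by isoproterenol to raise cAMP; antagonist potency measured as restoring cAMP signal that NPY suppresses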
T1 sequence (P49146 whole entry): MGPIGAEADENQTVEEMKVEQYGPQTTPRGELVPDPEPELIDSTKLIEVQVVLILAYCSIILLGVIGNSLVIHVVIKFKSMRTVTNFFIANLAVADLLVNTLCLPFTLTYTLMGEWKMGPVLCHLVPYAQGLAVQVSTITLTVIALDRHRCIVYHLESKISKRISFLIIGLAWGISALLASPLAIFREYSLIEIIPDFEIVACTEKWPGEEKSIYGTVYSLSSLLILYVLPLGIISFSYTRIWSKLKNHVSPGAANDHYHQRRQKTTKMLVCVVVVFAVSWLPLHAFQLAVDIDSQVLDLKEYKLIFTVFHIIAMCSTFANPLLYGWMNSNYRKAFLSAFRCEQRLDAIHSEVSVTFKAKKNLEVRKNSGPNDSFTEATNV

[5] = target: T2, Neuropeptide Y receptor type 1 (Homo sapiens, UniProt P25929); assay type: functional;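 further: HEK293 cells with a CNG channel challenged with NPY then isoproterenol; potency as antagonist that reverses NPY suppression of cAMP signal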
T2 sequence (P25929 whole entry): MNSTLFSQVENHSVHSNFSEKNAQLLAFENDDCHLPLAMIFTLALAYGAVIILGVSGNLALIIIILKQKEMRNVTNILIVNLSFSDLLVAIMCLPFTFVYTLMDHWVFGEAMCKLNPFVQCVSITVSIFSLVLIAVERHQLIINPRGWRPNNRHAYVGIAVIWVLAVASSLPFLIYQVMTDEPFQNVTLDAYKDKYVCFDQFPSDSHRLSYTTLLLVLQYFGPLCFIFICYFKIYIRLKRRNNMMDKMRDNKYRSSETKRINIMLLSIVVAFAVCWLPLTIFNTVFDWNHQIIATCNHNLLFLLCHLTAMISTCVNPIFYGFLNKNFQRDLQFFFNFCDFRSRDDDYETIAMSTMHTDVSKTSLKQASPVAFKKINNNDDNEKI

[6] = target: SWI/SNF-related matrix-associated actin-dependent regulator of chromatin subfamily A member 2 (Homo sapiens, UniProt P51531); assay: Luminescence-based cell-based high throughput dose response assay to identify activators of the function of SWI/SNF related, matrix associated, actin dependent regulator of chromatin, subfamily a, member 2 (SMARCA2, BRM).; assay type: functional
[7] = Counterscreen for activators of the function of SWI/SNF related, matrix associated, actin dependent regulator of chromatin, subfamily a, member 2 (SMARCA2, BRM): Luminescence-based cell-based high throughput dose response assay to identify non-selective compounds using the VP16 reporter assay.; assay type: functional
[8] = target: Photoreceptor-specific nuclear receptor (Homo sapiens, UniProt Q9Y5X4); assay: NR2E3 inverse agonists, dose response, biochemical, TR-FRET (AID 463256); assay type: functional
Sequence of Photoreceptor-specific nuclear receptor (Q9Y5X4 whole entry): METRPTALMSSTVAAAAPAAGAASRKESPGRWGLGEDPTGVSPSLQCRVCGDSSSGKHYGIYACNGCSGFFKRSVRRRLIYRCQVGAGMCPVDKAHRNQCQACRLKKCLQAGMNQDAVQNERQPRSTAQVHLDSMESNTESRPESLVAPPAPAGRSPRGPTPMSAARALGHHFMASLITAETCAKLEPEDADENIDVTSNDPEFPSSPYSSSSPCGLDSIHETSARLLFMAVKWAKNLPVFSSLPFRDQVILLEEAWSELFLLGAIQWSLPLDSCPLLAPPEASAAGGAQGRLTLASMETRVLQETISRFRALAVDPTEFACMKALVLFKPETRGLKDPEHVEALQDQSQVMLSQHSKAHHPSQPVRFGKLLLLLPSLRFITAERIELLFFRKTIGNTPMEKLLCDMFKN

[9] = target: Peroxisome proliferator-activated receptor gamma/Nuclear receptor corepressor 2 (Homo sapiens, UniProt P37231+Q9Y618); assay: Counterscreen for NR2E3 inverse agonists: TR-FRET-based biochemical high throughput dose response assay to identify inverse agonists of the interaction between peroxisome proliferator-activated receptor gamma (PPARg) and nuclear receptor co-repressor 2 (NCOR2).; assay type: functional
Sequence of Peroxisome proliferator-activated receptor gamma/Nuclear receptor corepressor 2 (P37231 whole entry): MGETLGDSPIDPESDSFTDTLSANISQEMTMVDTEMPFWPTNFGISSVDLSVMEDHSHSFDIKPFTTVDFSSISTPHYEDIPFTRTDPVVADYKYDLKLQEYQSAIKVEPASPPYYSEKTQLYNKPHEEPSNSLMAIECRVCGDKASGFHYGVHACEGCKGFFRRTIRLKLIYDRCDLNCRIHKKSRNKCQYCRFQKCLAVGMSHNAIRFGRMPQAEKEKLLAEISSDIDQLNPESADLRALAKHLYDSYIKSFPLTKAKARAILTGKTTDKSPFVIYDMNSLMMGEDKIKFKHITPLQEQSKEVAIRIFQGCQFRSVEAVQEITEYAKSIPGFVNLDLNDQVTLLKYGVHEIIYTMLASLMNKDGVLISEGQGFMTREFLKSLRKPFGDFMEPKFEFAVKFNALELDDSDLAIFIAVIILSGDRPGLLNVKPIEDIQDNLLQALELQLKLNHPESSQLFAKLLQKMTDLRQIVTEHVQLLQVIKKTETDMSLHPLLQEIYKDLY
Sequence of Peroxisome proliferator-activated receptor gamma/Nuclear receptor corepressor 2 (Q9Y618 whole entry): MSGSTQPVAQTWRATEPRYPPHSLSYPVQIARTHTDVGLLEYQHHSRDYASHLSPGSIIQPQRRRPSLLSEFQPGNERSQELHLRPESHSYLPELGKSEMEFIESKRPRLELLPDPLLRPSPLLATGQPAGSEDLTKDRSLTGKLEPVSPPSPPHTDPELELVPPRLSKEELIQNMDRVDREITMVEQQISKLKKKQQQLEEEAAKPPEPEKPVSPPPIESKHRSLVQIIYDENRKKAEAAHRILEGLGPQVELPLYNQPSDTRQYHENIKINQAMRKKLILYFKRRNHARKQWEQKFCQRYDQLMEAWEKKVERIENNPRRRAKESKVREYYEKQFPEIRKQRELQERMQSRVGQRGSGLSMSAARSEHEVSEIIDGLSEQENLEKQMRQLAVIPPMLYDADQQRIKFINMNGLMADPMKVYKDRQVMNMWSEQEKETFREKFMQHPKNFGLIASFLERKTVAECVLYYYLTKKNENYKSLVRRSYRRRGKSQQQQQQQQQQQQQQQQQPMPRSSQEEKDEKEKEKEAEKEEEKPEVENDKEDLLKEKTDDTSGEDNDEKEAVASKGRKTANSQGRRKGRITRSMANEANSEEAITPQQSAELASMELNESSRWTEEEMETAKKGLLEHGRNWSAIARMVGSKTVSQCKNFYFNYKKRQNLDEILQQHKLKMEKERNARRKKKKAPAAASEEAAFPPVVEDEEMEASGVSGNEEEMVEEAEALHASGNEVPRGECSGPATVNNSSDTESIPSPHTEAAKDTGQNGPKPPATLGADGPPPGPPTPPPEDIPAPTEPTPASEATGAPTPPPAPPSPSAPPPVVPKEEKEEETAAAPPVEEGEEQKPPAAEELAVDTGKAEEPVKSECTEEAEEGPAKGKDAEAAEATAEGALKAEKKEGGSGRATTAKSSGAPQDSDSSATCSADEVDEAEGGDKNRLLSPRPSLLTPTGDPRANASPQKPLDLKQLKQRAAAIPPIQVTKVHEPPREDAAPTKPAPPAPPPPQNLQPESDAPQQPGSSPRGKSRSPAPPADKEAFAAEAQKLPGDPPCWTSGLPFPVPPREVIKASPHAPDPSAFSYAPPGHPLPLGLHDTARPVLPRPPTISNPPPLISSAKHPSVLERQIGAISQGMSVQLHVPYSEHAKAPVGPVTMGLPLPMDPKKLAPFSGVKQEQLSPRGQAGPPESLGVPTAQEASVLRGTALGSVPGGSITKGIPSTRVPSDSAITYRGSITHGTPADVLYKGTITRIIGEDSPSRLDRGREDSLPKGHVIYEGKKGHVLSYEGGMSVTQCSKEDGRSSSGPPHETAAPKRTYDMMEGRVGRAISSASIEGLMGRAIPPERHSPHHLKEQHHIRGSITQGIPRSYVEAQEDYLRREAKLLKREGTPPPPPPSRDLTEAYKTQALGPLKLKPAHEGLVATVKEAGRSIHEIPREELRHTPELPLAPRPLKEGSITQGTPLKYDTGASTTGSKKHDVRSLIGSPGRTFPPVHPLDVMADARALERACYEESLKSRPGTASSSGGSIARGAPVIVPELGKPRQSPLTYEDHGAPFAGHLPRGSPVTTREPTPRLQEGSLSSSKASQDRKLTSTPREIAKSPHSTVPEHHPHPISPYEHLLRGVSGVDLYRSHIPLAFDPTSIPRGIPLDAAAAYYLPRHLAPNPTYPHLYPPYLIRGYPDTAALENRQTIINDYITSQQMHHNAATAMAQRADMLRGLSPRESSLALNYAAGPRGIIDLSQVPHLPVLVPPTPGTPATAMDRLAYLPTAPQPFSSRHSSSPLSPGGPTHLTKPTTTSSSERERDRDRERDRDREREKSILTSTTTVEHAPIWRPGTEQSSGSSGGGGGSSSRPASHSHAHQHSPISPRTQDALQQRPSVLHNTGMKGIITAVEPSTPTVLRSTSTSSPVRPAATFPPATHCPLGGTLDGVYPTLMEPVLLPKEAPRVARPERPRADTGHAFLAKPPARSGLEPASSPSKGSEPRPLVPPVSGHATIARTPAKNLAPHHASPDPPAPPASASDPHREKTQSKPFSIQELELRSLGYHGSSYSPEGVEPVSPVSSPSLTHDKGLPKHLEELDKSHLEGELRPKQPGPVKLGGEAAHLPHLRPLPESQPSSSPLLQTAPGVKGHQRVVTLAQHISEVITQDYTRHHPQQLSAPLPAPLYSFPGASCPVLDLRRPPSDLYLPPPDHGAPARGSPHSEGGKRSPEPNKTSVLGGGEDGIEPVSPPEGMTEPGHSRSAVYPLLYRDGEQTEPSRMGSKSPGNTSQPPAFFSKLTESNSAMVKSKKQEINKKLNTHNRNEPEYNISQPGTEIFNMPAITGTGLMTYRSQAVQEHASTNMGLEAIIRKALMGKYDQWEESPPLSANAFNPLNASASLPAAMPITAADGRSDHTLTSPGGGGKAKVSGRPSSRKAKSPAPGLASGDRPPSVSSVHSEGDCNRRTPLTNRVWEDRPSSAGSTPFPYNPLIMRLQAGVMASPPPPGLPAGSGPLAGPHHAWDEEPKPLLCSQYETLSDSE

[10] = inhibitors of firefly luciferase expression or activity, dose response, H4 neuroglioma cells, luminescence (AID 1990); assay type: functional, cell-based
[11] = Luminescence Cell-Based Dose Response HTS to Identify Inhibitors of 5'UTR Stem-Loop Driven Prion Protein mRNA Translation in H4 Neuroglioblastoma Cells. [Related pubchem assays: 1827 (Project Summary), 1813 (Primary HTS)]; assay type: functional
[12] = inhibitors of SNCA 5'UTR-driven reporter translation, confirmation, H4 neuroglioma cells, luminescence (AID 1988); assay type: functional, cell-based
[13] = target: T3, Replicative DNA helicase DnaB (Mycobacterium tuberculosis, UniProt P9WMR3); assay: DnaB intein splicing inhibitors, dose response, biochemical, cell-free fluorescence (AID 449749); assay type: functional
T3 sequence (P9WMR3 whole entry): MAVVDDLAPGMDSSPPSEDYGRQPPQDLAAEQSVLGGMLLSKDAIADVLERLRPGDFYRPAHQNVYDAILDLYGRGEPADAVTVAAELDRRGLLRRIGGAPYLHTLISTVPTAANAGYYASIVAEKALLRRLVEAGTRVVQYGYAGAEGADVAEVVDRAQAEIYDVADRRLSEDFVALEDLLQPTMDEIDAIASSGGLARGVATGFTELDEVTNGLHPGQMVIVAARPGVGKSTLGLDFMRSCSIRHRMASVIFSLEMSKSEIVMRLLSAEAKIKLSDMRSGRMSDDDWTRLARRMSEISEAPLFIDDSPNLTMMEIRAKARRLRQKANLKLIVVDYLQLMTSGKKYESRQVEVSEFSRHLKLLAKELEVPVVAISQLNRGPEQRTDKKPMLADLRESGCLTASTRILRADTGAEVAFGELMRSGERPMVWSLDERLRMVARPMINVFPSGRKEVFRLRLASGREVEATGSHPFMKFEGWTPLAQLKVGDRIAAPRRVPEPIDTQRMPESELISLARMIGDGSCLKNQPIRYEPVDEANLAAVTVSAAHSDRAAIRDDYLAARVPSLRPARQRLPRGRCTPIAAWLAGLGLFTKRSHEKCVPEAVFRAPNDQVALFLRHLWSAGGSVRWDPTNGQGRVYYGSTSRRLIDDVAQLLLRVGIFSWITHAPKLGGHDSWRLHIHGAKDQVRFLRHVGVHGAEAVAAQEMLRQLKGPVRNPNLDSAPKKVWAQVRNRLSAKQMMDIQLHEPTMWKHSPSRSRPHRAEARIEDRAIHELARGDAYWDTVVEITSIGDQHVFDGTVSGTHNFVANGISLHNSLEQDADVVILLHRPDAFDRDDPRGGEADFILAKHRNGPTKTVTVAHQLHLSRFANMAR

[14] = target: T4, Protein RecA (Mycobacterium tuberculosis, UniProt P9WHJ3); assay: Fluorescence Cell-Free Homogeneous Dose Retest to Identify Inhibitors of RecA-Intein Splicing Activity. [Related pubchem assays (depositor defined):AID2097, AID2223, AID489010, AID492950]; assay type: functional
T4 sequence (P9WHJ3 whole entry): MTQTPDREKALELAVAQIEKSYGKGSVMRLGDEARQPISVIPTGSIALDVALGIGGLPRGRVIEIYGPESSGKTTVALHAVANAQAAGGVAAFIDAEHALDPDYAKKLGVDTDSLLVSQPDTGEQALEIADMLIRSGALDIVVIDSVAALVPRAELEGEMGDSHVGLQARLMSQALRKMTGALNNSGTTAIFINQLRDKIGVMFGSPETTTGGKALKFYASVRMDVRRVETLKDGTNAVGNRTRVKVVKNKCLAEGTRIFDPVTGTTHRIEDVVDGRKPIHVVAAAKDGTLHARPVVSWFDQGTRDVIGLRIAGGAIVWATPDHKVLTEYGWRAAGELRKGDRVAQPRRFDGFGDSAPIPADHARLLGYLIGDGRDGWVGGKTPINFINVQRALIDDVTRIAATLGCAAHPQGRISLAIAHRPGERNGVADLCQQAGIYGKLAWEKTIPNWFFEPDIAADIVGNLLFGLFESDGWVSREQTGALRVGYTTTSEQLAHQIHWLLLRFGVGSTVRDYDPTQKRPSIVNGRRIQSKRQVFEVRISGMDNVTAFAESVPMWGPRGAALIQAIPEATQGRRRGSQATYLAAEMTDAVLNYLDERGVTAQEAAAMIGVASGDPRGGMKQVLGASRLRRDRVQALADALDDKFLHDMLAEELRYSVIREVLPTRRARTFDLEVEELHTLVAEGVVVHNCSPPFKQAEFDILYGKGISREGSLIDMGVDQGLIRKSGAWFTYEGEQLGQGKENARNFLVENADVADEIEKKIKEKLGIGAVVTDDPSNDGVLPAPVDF

[15] = target: T5, CAAX prenyl protease 2 (Saccharomyces cerevisiae S288c, UniProt Q03530); assay type: biochemical
T5 sequence (Q03530 whole entry): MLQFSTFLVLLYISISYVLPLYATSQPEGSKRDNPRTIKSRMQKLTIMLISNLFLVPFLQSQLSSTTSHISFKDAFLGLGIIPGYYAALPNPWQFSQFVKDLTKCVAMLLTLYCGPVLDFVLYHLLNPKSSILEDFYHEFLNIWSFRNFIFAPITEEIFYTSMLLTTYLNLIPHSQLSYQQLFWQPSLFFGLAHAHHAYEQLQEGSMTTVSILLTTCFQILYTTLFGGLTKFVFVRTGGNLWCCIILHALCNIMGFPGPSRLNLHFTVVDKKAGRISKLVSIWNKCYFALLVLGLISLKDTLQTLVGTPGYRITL

[16] = NIH:OVCAR-3 ovarian cancer cell cytotoxicity, dose response, PAX8 inhibitor project, plate reader, dry powder samples (AID 743044); assay type: functional, cell-based
[17] = cytotoxicity in OVCAR8 ovarian cancer cells, dose response, PAX8 project, cell-based, plate reader, dry powder samples (AID 743197); assay type: functional; details: OVCAR-8
[18] = P. falciparum ATP4 D1247Y mutant growth inhibitors, dose response, NITD609-resistant line, SYBR Green, dry powder (AID 1159571); assay type: functional, cell-based;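 further: parasites synchronized at ring stage by sorbitol before testing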
[19] = P. falciparum 3D7-ScDHODH growth inhibitors, dose response, SYBR Green, dry powder samples (AID 1159570); assay type: functional, cell-based;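 further: parasite growth measured after 72 hours of compound exposure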
[20] = HepG2 cell cytotoxicity, dose response, cytotoxicity control, plate reader, dry powder samples (AID 1159569); assay type: functional, cell-based;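 further: inhibitor potency with signal falling toward the positive control level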
[21] = P. falciparum Dd2 growth inhibitors, dose response, SYBR Green, dry powder samples (AID 1159566); assay type: functional, cell-based;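 further: potency for growth inhibition with lower SYBR green DNA signal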
[22] = P. falciparum Dd2 growth inhibitors, dose response, SYBR Green, cherry-picked samples (AID 1159567); assay type: functional, cell-based

Sequence of Luciferin 4-monooxygenase (P08659 whole entry): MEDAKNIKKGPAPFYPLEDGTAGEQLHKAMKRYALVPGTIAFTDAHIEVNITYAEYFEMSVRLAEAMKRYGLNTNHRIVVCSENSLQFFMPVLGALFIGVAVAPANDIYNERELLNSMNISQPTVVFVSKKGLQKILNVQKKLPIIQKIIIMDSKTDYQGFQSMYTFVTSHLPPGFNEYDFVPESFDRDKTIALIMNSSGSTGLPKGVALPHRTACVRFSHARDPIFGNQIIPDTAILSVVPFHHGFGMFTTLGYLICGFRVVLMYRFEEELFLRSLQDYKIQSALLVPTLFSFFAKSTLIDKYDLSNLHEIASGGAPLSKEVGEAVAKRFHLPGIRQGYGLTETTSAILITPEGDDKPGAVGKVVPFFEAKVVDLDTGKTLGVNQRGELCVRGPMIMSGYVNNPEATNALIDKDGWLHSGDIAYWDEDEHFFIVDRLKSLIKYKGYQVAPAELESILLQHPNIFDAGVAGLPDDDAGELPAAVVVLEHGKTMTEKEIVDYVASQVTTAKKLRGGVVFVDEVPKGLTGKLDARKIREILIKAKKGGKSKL

## COc1ccc(C(=O)ON=C(N)c2ccccn2)cc1
[1]
  EC50: 1.47 µM (active)
[2]
  AC50: 12.6 µM (active)
[3]
  AC50: 8.88 µM (active)

## CC(C)OC(=O)/C(=C/c1ccc2c(c1)c1ccccc1n2C)NC(=O)c1ccccc1
[4]
  IC50: 14.7 µM (not active)
[5]
  IC50: 19.1 µM (not active)

## Cc1ccsc1C(=O)OCC(=O)NCCC1=CCCCC1
[6]
  EC50: > 91.1 µM (inactive)
[7]
  EC50: > 91.1 µM (inactive)

## Cc1cccc(-n2ccnc2SCC(=O)N2CCCc3ccccc32)c1C
[4]
  IC50: 1.56 µM (active)
[5]
  IC50: 4.08 µM (active)

## CCn1cnc2sc(C(=O)Nc3ccccc3OC)c(C)c2c1=O
[8]
  IC50: 7.11 µM (active)
[9]
  IC50: 4.9 µM (active)

## Cc1ccc2nc(-c3cc(-c4ccccc4)no3)cn2c1
[8]
  IC50: > 39.8 µM (not active)
[10]
  EC50: 7.48 µM (inconclusive)
[11]
  EC50: 3.61 µM (active)
[9]
  IC50: > 39.8 µM (not active)
[12]
  EC50: 3.08 µM (active)

## COc1ccc(-c2cc(C#N)nc(Cl)n2)cc1
[13]
  AC50: 79.8 µM (active)
[14]
  EC50: 37.2 µM (active)
[6]
  EC50: > 91.2 µM (inactive)
[7]
  EC50: > 91.2 µM (inactive)

## Oc1ccc(-c2nc3ccccn3c2NCc2ccc3c(c2)OCO3)cc1
[15]
  AC50: 27.7 µM (active)

## O=C(CCc1nc(-c2ccccc2)c(-c2ccccc2)o1)OCc1ccc(Br)cc1
[4]
  IC50: 15.1 µM (not active)
[5]
  IC50: 8.36 µM (active)

## O=C(Nc1cccc(-n2cnnn2)c1)c1cc2ccccc2o1
[8]
  IC50: 6.55 µM (active)
[9]
  IC50: 5.91 µM (active)

## CN1CCN(C(=O)c2ccc3c(c2)NC(=O)/C(=C/c2ccccc2)S3)CC1
[2]
  AC50: 29.7 µM (active)

## CCOC(=O)c1cc2c(O)nccc2nc1C
[15]
  AC50: 10.3 µM (active)

## Cc1nn(-c2ncccn2)c2c1C(=O)CC(C)(C)C2Br (stereo unspecified)
[2]
  AC50: 69.7 µM (active)

## Cc1ccccc1-c1ccc2c(c1)O[C@H](CN(C)C(=O)Nc1ccc(C(F)(F)F)cc1)[C@@H](C)CN([C@H](C)CO)S2(=O)=O
[16]
  AC50: 41.1 µM (active)
[3]
  AC50: 8 µM (active)
[17]
  AC50: > 70 µM (inactive)

## C[C@@H]1CCCCO[C@H](CN(C)Cc2ccc(C(F)(F)F)cc2)[C@H](C)CN([C@@H](C)CO)C(=O)c2cc(NS(=O)(=O)c3ccc(Cl)cc3)ccc2O1
[16]
  AC50: 16.4 µM (active)
[3]
  AC50: 5.9 µM (active)
[17]
  AC50: > 70 µM (inactive)

## Cc1ccc(S(=O)(=O)N(C)C[C@H]2OCCCC[C@H](C)Oc3ccc(NS(=O)(=O)c4ccc(Cl)cc4)cc3C(=O)N([C@@H](C)CO)C[C@@H]2C)cc1
[3]
  AC50: 6.7 µM (active)
[17]
  AC50: > 70 µM (inactive)

## COc1ccc2c3c([nH]c2c1)[C@@H](CO)N(Cc1cccc(F)c1)CC31CCN(Cc2ccccn2)CC1
[18]
  AC50: 1.1 µM (active)
[19]
  AC50: 1.32 µM (active)
[20]
  AC50: 48.6 µM (active)
[21]
  AC50: 1.52 µM (active)
[22]
  AC50: 1.21 µM (active)

## COc1ccc(S(=O)(=O)N(C)C[C@H]2Oc3c(NC(=O)Nc4cccc5ccccc45)cccc3C(=O)N([C@@H](C)CO)C[C@H]2C)cc1
[18]
  AC50: 0.277 µM (active)
[19]
  AC50: 0.3 µM (active)
[20]
  AC50: > 100 µM (inactive)
[21]
  AC50: 0.327 µM (active)
[22]
  AC50: 0.489 µM (active)

## COc1cccc(NC(=O)N2[C@@H](CO)[C@@H](c3ccccc3)[C@@H]2CNCC(C)C)c1
[18]
  AC50: 1.4 µM (active)
[19]
  AC50: 1.08 µM (active)
[20]
  AC50: 67.9 µM (active)
[21]
  AC50: 1.05 µM (active)
[22]
  AC50: 1.78 µM (active)
